Experimental data: the NIST ThermoML archive (doi:10.1016/j.fluid.2013.03.001)

Experiments:
[1] = 101.33 kPa, Liquid; for viscosity: Concentric cylinders viscometry; for mass density: Vibrating tube method
[2] = molar heat capacity at constant pressure; conditions: 101.33 kPa, Liquid, Small sample (50 mg) DSC

CCCCn1cc[n+](C)c1.[Cl][Fe-]([Cl])([Cl])[Cl] [1-butyl-3-methylimidazolium tetrachloroferrate]
Conditions	mass density [kg/m3]	molar heat capacity at constant pressure [J/K/mol]	viscosity [mPa·s]
[1], 278.15 K	–	–	103.3
[1], 283.15 K	–	–	79.5
[1], 288.15 K	–	–	62.6
[1], 293.15 K	1370	–	50.2
[1], 294.15 K	1369.2	–	–
[1], 295.15 K	1368.3	–	–
[1], 296.15 K	1367.5	–	–
[1], 297.15 K	1366.7	–	–
[1], 298.15 K	1365.8	–	41
[1], 299.15 K	1365	–	–
[1], 300.15 K	1364.2	–	–
[1], 301.15 K	1363.3	–	–
[1], 302.15 K	1362.5	–	–
[1], 303.15 K	1361.7	–	33.9
[1], 304.15 K	1360.9	–	–
[1], 305.15 K	1360.1	–	–
[1], 306.15 K	1359.2	–	–
[1], 307.15 K	1358.4	–	–
[1], 308.15 K	1357.6	–	28.5
[1], 309.15 K	1356.8	–	–
[1], 310.15 K	1356	–	–
[1], 311.15 K	1355.1	–	–
[1], 312.15 K	1354.3	–	–
[1], 313.15 K	1353.5	–	24.2
[1], 314.15 K	1352.7	–	–
[1], 315.15 K	1351.9	–	–
[1], 316.15 K	1351.1	–	–
[1], 317.15 K	1350.3	–	–
[1], 318.15 K	1349.5	–	20.8
[1], 319.15 K	1348.7	–	–
[1], 320.15 K	1347.8	–	–
[1], 321.15 K	1347	–	–
[1], 322.15 K	1346.2	–	–
[1], 323.15 K	1345.4	–	18.1
[1], 324.15 K	1344.6	–	–
[1], 325.15 K	1343.8	–	–
[1], 326.15 K	1343	–	–
[1], 327.15 K	1342.2	–	–
[1], 328.15 K	1341.4	–	15.8
[1], 329.15 K	1340.6	–	–
[1], 330.15 K	1339.8	–	–
[1], 331.15 K	1339	–	–
[1], 332.15 K	1338.2	–	–
[1], 333.15 K	1337.4	–	13.9
[1], 334.15 K	1336.6	–	–
[1], 335.15 K	1335.9	–	–
[1], 336.15 K	1335.1	–	–
[1], 337.15 K	1334.3	–	–
[1], 338.15 K	1333.5	–	12.4
[1], 339.15 K	1332.7	–	–
[1], 340.15 K	1331.9	–	–
[1], 341.15 K	1331.1	–	–
[1], 342.15 K	1330.3	–	–
[1], 343.15 K	1329.5	–	11.1
[1], 344.15 K	1328.7	–	–
[1], 345.15 K	1328	–	–
[1], 346.15 K	1327.2	–	–
[1], 347.15 K	1326.4	–	–
[1], 348.15 K	1325.6	–	10
[1], 349.15 K	1324.8	–	–
[1], 350.15 K	1324	–	–
[1], 351.15 K	1323.3	–	–
[1], 352.15 K	1322.5	–	–
[1], 353.15 K	1321.7	–	9
[1], 354.15 K	1320.9	–	–
[1], 355.15 K	1320.1	–	–
[1], 356.15 K	1319.4	–	–
[1], 357.15 K	1318.6	–	–
[1], 358.15 K	1317.8	–	8.2
[1], 359.15 K	1317	–	–
[1], 360.15 K	1316.3	–	–
[1], 361.15 K	1315.5	–	–
[1], 362.15 K	1314.7	–	–
[1], 363.15 K	1313.9	–	7.5
[1], 368.15 K	–	–	6.9
[1], 373.15 K	–	–	6.3
[2], 308.16 K	–	436.39	–
[2], 313.16 K	–	446.09	–
[2], 318.16 K	–	446.39	–
[2], 323.16 K	–	447.13	–
[2], 328.22 K	–	449.63	–
[2], 333.22 K	–	451.03	–
[2], 338.19 K	–	452.53	–
[2], 343.18 K	–	456.2	–
[2], 348.25 K	–	457.4	–
[2], 353.18 K	–	457.95	–
[2], 358.25 K	–	459.31	–
[2], 363.18 K	–	460.92	–
[2], 368.17 K	–	461.57	–
[2], 373.21 K	–	462.88	–
[2], 378.2 K	–	463.64	–
[2], 383.17 K	–	465.82	–
[2], 388.2 K	–	465.66	–
[2], 393.17 K	–	466.11	–
[2], 398.2 K	–	467.83	–
[2], 403.2 K	–	469.12	–
[2], 408.16 K	–	469.7	–
[2], 413.19 K	–	469.42	–
[2], 418.19 K	–	471.44	–
[2], 423.22 K	–	470.84	–
